Assay results from US20230345990A1, “PROCESS FOR PRODUCTION OF CONCENTRATES OF CHELATED MINERALS WITH SOYBEAN AMINO ACIDS AND/OR SOYBEAM PROTEIN, AND RELATED PRODUCT” (Yessinergy Holding S.A., priority 2021, published 2023).

Legend:
Type in all cases: in vivo, broilers (Cobb 500 male chicks)
[1] = Broiler performance (feed intake, weight gain, feed conversion) with different Zn sources
Excerpt: (§1) An experiment was developed with the purpose of investigating the effect of providing six different sources of Zn, at two levels of supplementation, in diets based on corn, soybean bran and phytase, with respect to performance and balance of Zn in broilers.
The experimental feeds used for the initial phase (1 to 21 days) and for growth (21 to 42 days) were formulated based on corn, soybean bran and phytase, following the recommendations proposed by Rostagno et al. (2017) for each phase.
Feed and water were freely provided throughout an experimental period from 1 to 42 days. The shed room temperature was maintained using 250 Watt infrared lamps and curtains on the sides of the shed. Light was provided for 22 hours/day in a scheme of 12 hours of natural light and 10 hours of artificial light. 2,400 lineage Cobb 500 male chicks were used, distributed in a randomized block design housed on the floor in a shed divided into 120 boxes of 1.0×2.0 meters (3,3×6.6 ft), with reused wood shavings bed, for the purpose of increasing the health challenge of birds. […]
The parameters of performance evaluated were feed intake (FI, kg/bird), weight gain (WG, kg/bird), feed conversion (FC, kg/kg).

[2] = Foot Pad Lesions (FPL) score in broilers at 42 days
Experimental: as §1
(§2) Feed and water were freely provided throughout an experimental period from 1 to 42 days. The shed room temperature was maintained using 250 Watt infrared lamps and curtains on the sides of the shed. Light was provided for 22 hours/day in a scheme of 12 hours of natural light and 10 hours of artificial light. 2,400 lineage Cobb 500 male chicks were used, distributed in a randomized block design housed on the floor in a shed divided into 120 boxes of 1.0×2.0 meters (3,3×6.6 ft), with reused wood shavings bed, for the purpose of increasing the health challenge of birds.
(§3) The birds were randomly distributed in a 6×2 factorial arrangement with six different sources of Zn and two levels of Zn (40 and 80 mg/kg), totaling 12 treatments with 10 repetitions and 20 animals per box (this being considered one experimental unit).
At 42 days of age, during individual weighing of the birds, the quality of the foot pad was determined, using the Foot Pad Lesions (FPL) score according to Berg (1998) and Van Ham et al. (2019), wherein both foot pads of all animals in the experiment were evaluated. Score 0 was given for cushions without any injuries, 1 for discolored cushions but without deep injuries, and score 2 for cushions with deep injuries (ulcers, blisters, etc.). As this is a subjective fact, only one person was responsible for the assessment of the foot pad score. The Injury Score for each experimental unit was calculated according to the following equation, with FPL index varying from 0 to 200 (all birds having score 2).

[3] = Zn balance in broilers (Zn in excreta, retained Zn)
Experimental: as §1, §2, §3
At 33 days of age, excreta were collected for 24 hours by placing a plastic canvas on the floor of each box to determine Zn content (mg/kg of dry matter in excreta), retained Zn (consumed mg minus excreted mg), and Zn balance (retained Zn/consumed Zn x 100).

[4] = level of zinc 40 mg/kg, 1 to 42 days
[5] = level of zinc 80 mg/kg, 1 to 42 days

Percentage of Retained Zinc ([3]; level of zinc 40 mg/kg): 19.52% | Zinc Excretion ([3]; level of zinc 40 mg/kg, excreta collected 24 h): 10.26 mg/bird | Percentage of Retained Zinc ([3]; level of zinc 80 mg/kg): 47.23% | Zinc Excretion ([3]; level of zinc 80 mg/kg, excreta collected 24 h): 9.17 mg/bird | Percentage of Retained Zinc ([3]; mean of 40 and 80 mg/kg): 33.4% | Zinc Excretion ([3]; mean of 40 and 80 mg/kg): 9.7 mg/bird
Structure (SMILES): O=S(=O)([O-])[O-].[Zn+2] [SF, ZnSO4]
Feed Conversion ([1]; level of zinc 40 mg/kg): 1.52 kg consumption/kg | Feed Consumption [1, 4]: 4.81 kg/bird | Weight Gain [1, 4]: 3.17 kg/bird | Feed Conversion ([1]; level of zinc 80 mg/kg): 1.51 kg consumption/kg | Feed Consumption [1, 5]: 4.73 kg/bird | Weight Gain [1, 5]: 3.14 kg/bird | Feed Conversion ([1]; level of zinc 100 mg/kg, trend based on results from 40 to 80 ppm of Zn): 1.52 kg consumption/kg | Feed Conversion ([1]; mean): 1.51 ab kg consumption/kg | Feed Consumption ([1]; mean of 40 and 80 mg/kg): 4.77 kg/bird | Weight Gain ([1]; mean of 40 and 80 mg/kg): 3.16 kg/bird | Foot pad lesions % (42 days) ([2]; level of zinc 40 mg/kg): 18.98% | Foot pad lesions % (42 days) ([2]; level of zinc 80 mg/kg): 25.09% | Foot pad lesions % (42 days) ([2]; mean of 40 and 80 mg/kg): 22.0%
